Data taken from patent US9527857B2, “HSPC-sparing treatments for RB-positive abnormal cellular proliferation” (G1 Therapeutics, Inc., priority 2013, dated 2016).

What was measured:
[1] = tested on: MCF7 (breast adenocarcinoma, Rb-positive); experiment: Cellular proliferation assay (CellTiter-Glo), MCF7; assay type: cell-based
Protocol: The MCF7 cells were seeded in Costar (Tewksbury, Mass.) 3903 96 well tissue culture treated white walled/clear bottom plates. A nine point dose response dilution series from 10 uM to 1 nM was performed and cell viability was determined after six days of compound treatment as indicated using the CellTiter-Glo® luminescent cell viability assay (CTG; Promega, Madison, Wis., United States of America) following the manufacturer's recommendations. Plates were read on a BioTek (Winooski, Vt.) Syngergy2 multi-mode plate reader. The Relative Light Units (RLU) were plotted as a result of variable molar concentration and data was analyzed using Graphpad (LaJolla, Calif.) Prism 5 statistical software to determine the EC50 for each compound.
(§1) Cellular proliferation assays were conducted using the following cancer cell lines: MCF7 (breast adenocarcinoma—Rb-positive), ZR-75-1 (breast ductal carcinoma—Rb-positive), H69 (human small cell lung cancer—Rb-negative) cells, or A2058 (human metastatic melanoma cells—Rb-negative). These cells were seeded in Costar (Tewksbury, Mass.) […] 96 well tissue culture treated white walled/clear bottom plates. Cells were treated with the compounds of Table 1 as nine point dose response dilution series from 10 uM to 1 nM. Cells were exposed to compounds and then cell viability was determined after either four (H69) or six (MCF7, ZR75-1, A2058) days as indicated using the CellTiter-Glo® luminescent cell viability assay (CTG; Promega, Madison, Wis., United States of America) following the manufacturer's recommendations. Plates were read on BioTek (Winooski, Vt.) Syngergy2 multi-mode plate reader. The Relative Light Units (RLU) were plotted as a result of variable molar concentration and data was analyzed using Graphpad (LaJolla, Calif.) Prism 5 statistical software to determine the EC50 for each compound.

[2] = tested on: MMTV-c-neu (Rb-positive) tumors; experiment: MMTV-c-neu HER2-driven (Rb-positive) luminal breast cancer mouse model; assay type: in vivo, mice
Excerpt: A HER2-driven model (Rb-positive) of breast cancer (Muller W J, Sinn E, Pattengale P K, Wallace R, Leder P. Single-step induction of mammary adenocarcinoma in transgenic mice bearing the activated c-neu oncogene. Cell 1988; 54: 105-15), that expresses c-neu (the mouse ortholog of human HER2) driven by the MMTV promoter was used in the following example. This model was chosen because previous studies in murine (Yu Q, Geng Y, Sicinski P. Specific protection against breast cancers by cyclin D1 ablation. Nature 2001; 411: 1017-21; Landis M W, Pawlyk B S, Li T, Sicinski P, Hinds P W. Cyclin D1-dependent kinase activity in murine development and mammary tumorigenesis. Cancer Cell 2006; 9: 13-22; Reddy H K, Mettus R V, Rane S G, Grana X, Litvin J, Reddy E P. Cyclin-dependent kinase 4 expression is essential for neu-induced breast tumorigenesis. Cancer Res 2005; 65: 10174-8; Yu Q, Sicinska E, Geng Y, Ahnstrom M, Zagozdzon A, Kong Y, et al. Requirement for CDK4 kinase function in breast cancer. Cancer Cell 2006; 9: 23-32.) and human HER2-positive breast cancer (An H X, Beckmann M W, Reifenberger G, Bender H G, Niederacher D. Gene amplification and overexpression of CDK4 in sporadic breast carcinomas is associated with high tumor cell proliferation. Am J Pathol 1999; 154: 113-8; Samady L, Dennis J, Budhram-Mahadeo V, Latchman DS. Activation of CDK4 gene expression in human breast cancer cells by the Brn-3b POU family transcription factor. Cancer Biol Ther 2004; 3: 317-23; Takano Y, Takenaka H, Kato Y, Masuda M, Mikami T, Saegusa M, et al. Cyclin D1 overexpression in invasive breast cancers: correlation with cyclin-dependent kinase 4 and oestrogen receptor overexpression, and lack of correlation with mitotic activity.
MMTV-neu mice were generated and observed post-lactation, with tumors observed with a median latency of approximately 25 weeks. Mice were enrolled in therapy studies when tumors reached a standard size (50-60 mm3) that permitted easy serial assessment. […] Tumor volumes were calculated by the formula, Volume=[(width)^2×length]/2. Tumor-bearing mice were euthanized at the indicated times due to predefined morbidity, tumor ulceration, or a tumor size of more than 1.5 cm in diameter.
Tumors were serially assessed weekly using caliper measurements. Therapeutic intervention began once tumors reached 40-64 mm^3. Tumor volume was calculated using the formula […]. All three compounds were administered orally via medicated diets (100 mg/kg/d). Medicated diets were administered for 28 consecutive days and then stopped. RECIST criteria were used to assess objective response rates.

HSPCs (LKS+) [3] = experiment: Bone marrow HSPC proliferation by EdU incorporation and flow cytometry; assay type: in vivo; conditions: 150 mg/kg oral gavage, mice
Protocol: . JCNI 2012; 104(6):476-487 (FIG. 2A). […].
Mice were then sacrificed at the indicated times (0, 12, 24, 36, or 48 hours following compound administration), and bone marrow was harvested (n=3 mice per time point), as previously described (Johnson et al. J. Clin. Invest. (2010) 120(7), 2528-2536). Four hours before the bone marrow was harvested, mice were treated with 100 μg of EdU by intraperitoneal injection (Invitrogen). Bone marrow mononuclear cells were harvested and immunophenotyped using previously described methods and percent EdU positive cells were then determined (Johnson et al. J. Clin. Invest. (2010) 120(7), 2528-2536). In brief, HSPCs were identified by expression of lineage markers (Lin−), Sca1 (S+), and c-Kit (K+).
Four hours before animals were sacrificed and the bone marrow was harvested, mice were treated with 100 μg of EdU by intraperitoneal injection. Three mice per group were sacrificed at 12 hours and the remaining three animals per group were sacrificed at 24 hours. Results are shown in FIG. 5A as the ratio of EdU positive cells for treated animals at 12 or 24 hour time points compared to control.
Further experiments were completed with Compound T examining dose response and longer periods of compound treatment. […] […].
Both compounds were administered at 150 mg/kg by oral gavage. One hour prior to harvesting bone marrow, EdU was IP injected to label cycling cells. Bone marrow was harvested at 12, 24, 36, and 48 hours after compound treatment and the percentage of EdU positive HSPC cells was determined at each time point.

CDK6/CycD3 = CDK6/CycD3 (Homo sapiens (Human), UniProt Q00534); experiment: CDK6/CycD3 kinase assay; assay type: biochemical
Sequence of CDK6/CycD3 (Q00534 whole entry, species assumed): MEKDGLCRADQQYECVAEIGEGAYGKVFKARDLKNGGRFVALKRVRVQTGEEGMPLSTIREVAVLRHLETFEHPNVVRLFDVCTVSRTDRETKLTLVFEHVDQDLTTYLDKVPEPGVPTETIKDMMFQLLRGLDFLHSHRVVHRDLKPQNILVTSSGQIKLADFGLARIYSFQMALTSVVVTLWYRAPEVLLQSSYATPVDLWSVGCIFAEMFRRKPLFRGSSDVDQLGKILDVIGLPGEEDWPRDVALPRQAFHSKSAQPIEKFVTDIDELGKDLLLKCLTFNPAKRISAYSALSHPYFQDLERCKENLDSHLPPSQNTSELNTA
Sequence of CDK6/CycD3 (P30281 whole entry partner, species assumed): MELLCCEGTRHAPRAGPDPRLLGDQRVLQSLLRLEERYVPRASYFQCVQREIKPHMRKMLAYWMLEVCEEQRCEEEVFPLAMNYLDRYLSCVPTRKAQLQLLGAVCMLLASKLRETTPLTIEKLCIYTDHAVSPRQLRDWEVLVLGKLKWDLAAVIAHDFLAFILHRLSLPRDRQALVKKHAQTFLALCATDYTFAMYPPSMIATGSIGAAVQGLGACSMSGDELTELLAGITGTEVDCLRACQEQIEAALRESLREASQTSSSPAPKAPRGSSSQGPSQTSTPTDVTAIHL

[4] = tested on: ZR-75-1 (breast ductal carcinoma, Rb-positive); experiment: Cellular proliferation assay (CellTiter-Glo), ZR-75-1; assay type: cell-based
Protocol: as §1

[5] = Mouse pharmacokinetics (oral gavage / intravenous); assay type: in vivo, mice; conditions: plasma, 30 mg/kg, read-out: F (oral bioavailability)
Protocol: Blood samples were taken at 0, 0.25, 0.5, 1.0, 2.0, 4.0, and 8.0 hours post dosing and the plasma concentrations were determined by HPLC.

CDK4/CyclinD1 = CDK4/CyclinD1 (Homo sapiens (Human), UniProt P11802); experiment: CDK4/cyclinD1 kinase assay (Nanosyn, microfluidic Caliper platform); assay type: biochemical; conditions: Table 3; read-out: CDK4/CycD1 IC50
Sequence of CDK4/CyclinD1 (P11802 whole entry, species assumed): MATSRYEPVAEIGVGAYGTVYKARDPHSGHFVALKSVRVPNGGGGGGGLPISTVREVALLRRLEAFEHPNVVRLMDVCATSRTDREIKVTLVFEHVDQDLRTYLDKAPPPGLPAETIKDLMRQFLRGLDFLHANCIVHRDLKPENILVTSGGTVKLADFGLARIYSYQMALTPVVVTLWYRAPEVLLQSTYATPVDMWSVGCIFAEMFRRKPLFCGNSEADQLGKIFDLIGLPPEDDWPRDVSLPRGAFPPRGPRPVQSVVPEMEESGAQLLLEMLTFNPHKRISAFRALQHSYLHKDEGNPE
Sequence of CDK4/CyclinD1 (P24385 whole entry partner, species assumed): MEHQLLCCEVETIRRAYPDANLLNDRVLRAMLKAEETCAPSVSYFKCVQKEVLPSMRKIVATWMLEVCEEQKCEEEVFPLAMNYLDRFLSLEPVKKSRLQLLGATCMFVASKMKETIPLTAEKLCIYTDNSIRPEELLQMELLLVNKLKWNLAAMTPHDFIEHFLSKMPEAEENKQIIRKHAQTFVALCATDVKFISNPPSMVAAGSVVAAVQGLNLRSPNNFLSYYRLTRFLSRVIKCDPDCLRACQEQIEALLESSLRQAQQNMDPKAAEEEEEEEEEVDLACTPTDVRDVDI
Protocol: Selected compounds disclosed herein were tested in CDK4/cyclinD1, CDK2/CycA and CDK2/cyclinE kinase assays by Nanosyn (Santa Clara, Calif.) to determine their inhibitory effect on these CDKs. The assays were performed using microfluidic kinase detection technology (Caliper Assay Platform). The compounds were tested in 12-point dose-response format in singlicate at Km for ATP. Phosphoacceptor substrate peptide concentration used was 1 μM for all assays and Staurosporine was used as the reference compound for all assays. Specifics of each assay are as described below:
CDK4/CyclinD1: Enzyme concentration: 1 nM; ATP concentration: 200 μM; Incubation time: 10 hr.

[6] = PD0332991 pharmacokinetics and HSPC arrest in humans; assay type: in vivo; conditions: single administration
Protocol: When calculated half-life was longer than the duration of the experiment, the half-life was expressed as >the longest incubation time. The calculated half-life is also listed in parentheses. […] The timely resumption of cellular proliferation is necessary for tissue repair, and therefore an overly long period of arrest is undesirable in healthy cells such as HSPCs. The characteristics of a CDK4/6 inhibitor that dictate its arresting duration are its pharmacokinetic (PK) and enzymatic half-lives. Once initiated, a G1-arrest in vivo will be maintained as long as circulating compound remains at an inhibitory level, and as long as the compound engages the enzyme. […] These observations may explain the severe granulocytopenia seen with PD0332991 in the clinic.

HSPCs (LKS+) [7] = conditions: single oral dose 150 mg/kg, mice; Roberts et al.; cited from earlier work
[8] = Schwartz et al. (2011); cited from earlier work
[9] = tested on: HS68 cells (human fibroblast, Rb-positive); experiment: Cellular wash-out experiment, HS68 cells; assay type: cell-based; conditions: in vitro wash-out experiment
Protocol: […]. On day 3, one set of treated cell samples were harvested in triplicate (0 Hour sample). Remaining cells were washed two times in PBS-CMF and returned to culture media lacking test compound. Sets of samples were harvested in triplicate at 24, 40, and 48 hours.
(§2) Upon harvesting cells, samples were stained with propidium iodide staining solution and samples run on Dako Cyan Flow Cytometer. The fraction of cells in G0-G1 DNA cell cycle versus the fraction in S-phase DNA cell cycle was determined using FlowJo 7.2 0.2 analysis.

[10] = tested on: myeloid progenitor cells (LKS-); conditions: single oral dose 150 mg/kg, mice; Roberts et al.; cited from earlier work
[11] = tested on: human renal proximal tubule epithelial cells (Rb-positive); experiment: Cellular wash-out experiment, renal proximal tubule epithelial cells; assay type: cell-based; conditions: 300 nM
Protocol: Alternatively, the same experiment was done using normal Renal Proximal Tubule Epithelial Cells (Rb-positive) obtained from American Type Culture Collection (ATCC, Manassas, Va.). Cells were grown in an incubator at 37° C. in a humidified atmosphere of 5% CO2 in Renal Epithelial Cell Basal Media (ATCC) supplemented with Renal Epithelial Cell Growth Kit (ATCC) in 37° C. humidified incubator.
as §2

IC50 (CDK6/CycD3) [nM]	bioavailability [5] [%]	IC50 (CDK4/CyclinD1) [nM]	duration of cell cycle arrest of HSPC in humans [6]	SMILES	inhibition of cellular proliferation of MCF-7 cells (FIGS. 21-24) [1]	tumor volume during a 28 day course of therapy ([2]; 100 mg/kg/d in chow)	objective response rate ([2]; 100 mg/kg/day medicated diet, 28 days, RECIST criteria) [%]	EdU incorporation into HSPCs at 12 and 24 hours (FIG. 5A) (HSPCs (LKS+) [3])	inhibition of cellular proliferation of ZR75-1 cells (FIGS. 25-28) [4]	duration of sustained reduction in HSPC EdU incorporation (FIG. 2) (HSPCs (LKS+) [7])	time post oral dosing at which HSPC return to baseline cell division (FIG. 2) (HSPCs (LKS+) [7]) [h]	PK half-life in humans [8] [h]	duration of cell cycle arrest after compound is removed from the cell culture media [9]	duration of sustained reduction in myeloid progenitor cell EdU incorporation (FIG. 2) [10]	time post oral dosing at which myeloid progenitor cells return to baseline cell division (FIG. 2) [10] [h]	return to baseline levels of cell division after wash out compared to compounds T, Q, GG, or U [11]
5 to 6	52	0.7 to 1	–	CC(C)N1CCN(c2ccc(Nc3ncc4cc5n(c4n3)C3(CCCCC3)CNC5=O)nc2)CC1 [GG]	significant inhibition of cellular proliferation	marked decrease in tumor volume	85	reduction in EdU incorporation at 12 hours which was starting to return to normal at 24 hours	significant inhibition of cellular proliferation	–	–	–	–	–	–	–
–	–	–	approximately one week	CC(=O)c1c(C)c2cnc(Nc3ccc(N4CCNCC4)cn3)nc2n(C2CCCC2)c1=O [PD0332991, 6-acetyl-8-cyclopentyl-5-methyl-2-(5-piperazin-1-yl-pyridin-2-ylammino)-8H-pyrido-[2,3-d]-pyrimidin-7-one]	significant inhibition of cellular proliferation	–	–	–	significant inhibition of cellular proliferation	greater than 36 hours	48	27	more than forty hours	greater than 36 hours	48	took significantly longer to return to baseline levels of cell division
